# Data: ChEMBL document CHEMBL3994622, “Design and synthesis of new RAF kinase-inhibiting antiproliferative quinoline derivatives. Part 2: Diarylurea derivatives” (Eur J Med Chem, 2017)
# System: Malme-3M
# Test: Growth inhibition of human MALME-3M cells assessed as cell growth at 10 uM incubated for 48 hrs by sulforhodamine B assay relative to control
# Format: functional
# Conditions: read-out: Activity
row,Compound,growth at 10 µM
1,COc1cc2cc(Oc3ccc(NC(=O)Nc4ccc(Cl)c(C(F)(F)F)c4)cc3)c(C)nc2cc1OC,-23%

# System: OVCAR-5
# Test: Growth inhibition of human OVCAR5 cells assessed as cell growth at 10 uM incubated for 48 hrs by sulforhodamine B assay relative to control
# Format: functional
# Conditions: OVCAR-5, 48 h, read-out: Activity
row,Compound,growth at 10 µM
1,COc1cc2cc(Oc3ccc(NC(=O)Nc4ccc(Cl)c(C(F)(F)F)c4)cc3)c(C)nc2cc1OC,18%

# System: SNB-19
# Test: Growth inhibition of human SNB19 cells assessed as cell growth at 10 uM incubated for 48 hrs by sulforhodamine B assay relative to control
# Format: functional
# Conditions: SNB-19, 48 h, read-out: Activity
row,Compound,growth at 10 µM
1,COc1cc2cc(Oc3ccc(NC(=O)Nc4ccc(Cl)c(C(F)(F)F)c4)cc3)c(C)nc2cc1OC,23.7%

# System: MDA-MB-435
# Test: Growth inhibition of human MDA-MB-435 cells assessed as cell growth at 10 uM incubated for 48 hrs by sulforhodamine B assay relative to control
# Format: functional
# Conditions: MDA-MB-435, 48 h, read-out: Activity
row,Compound,growth at 10 µM
1,COc1cc2cc(Oc3ccc(NC(=O)Nc4ccc(Cl)c(C(F)(F)F)c4)cc3)c(C)nc2cc1OC,-25.7%

# System: NCI-H23
# Test: Growth inhibition of human NCI-H23 cells assessed as cell growth at 10 uM incubated for 48 hrs by sulforhodamine B assay relative to control
# Format: functional
# Conditions: NCI-H23, 48 h, read-out: Activity
row,Compound,growth at 10 µM
1,COc1cc2cc(Oc3ccc(NC(=O)Nc4ccc(Cl)c(C(F)(F)F)c4)cc3)c(C)nc2cc1OC,3.46%

# System: A549
# Test: Growth inhibition of human A549/ATCC cells assessed as cell growth at 10 uM incubated for 48 hrs by sulforhodamine B assay relative to control
# Format: functional
# Conditions: A549, 48 h, read-out: Activity
row,Compound,growth at 10 µM
1,COc1cc2cc(Oc3ccc(NC(=O)Nc4ccc(Cl)c(C(F)(F)F)c4)cc3)c(C)nc2cc1OC,-17.2%

# System: HCT-15
# Test: Growth inhibition of human HCT15 cells assessed as cell growth at 10 uM incubated for 48 hrs by sulforhodamine B assay relative to control
# Format: functional
# Conditions: HCT-15, 48 h, read-out: Activity
row,Compound,growth at 10 µM
1,COc1cc2cc(Oc3ccc(NC(=O)Nc4ccc(Cl)c(C(F)(F)F)c4)cc3)c(C)nc2cc1OC,1.27%

# System: OVCAR-4
# Test: Growth inhibition of human OVCAR4 cells assessed as cell growth at 10 uM incubated for 48 hrs by sulforhodamine B assay relative to control
# Format: functional
# Conditions: OVCAR-4, 48 h, read-out: Activity
row,Compound,growth at 10 µM
1,COc1cc2cc(Oc3ccc(NC(=O)Nc4ccc(Cl)c(C(F)(F)F)c4)cc3)c(C)nc2cc1OC,17.1%

# System: HL-60(TB)
# Test: Growth inhibition of human HL-60(TB) cells assessed as cell growth at 10 uM incubated for 48 hrs by sulforhodamine B assay relative to control
# Format: functional
# Conditions: HL-60, 48 h, read-out: Activity
row,Compound,growth at 10 µM
1,COc1cc2cc(Oc3ccc(NC(=O)Nc4ccc(Cl)c(C(F)(F)F)c4)cc3)c(C)nc2cc1OC,-40.6%

# System: HT-29
# Test: Growth inhibition of human HT-29 cells assessed as cell growth at 10 uM incubated for 48 hrs by sulforhodamine B assay relative to control
# Format: functional
# Conditions: HT-29, 48 h, read-out: Activity
row,Compound,growth at 10 µM
1,COc1cc2cc(Oc3ccc(NC(=O)Nc4ccc(Cl)c(C(F)(F)F)c4)cc3)c(C)nc2cc1OC,-24.9%

# System: SF-268
# Test: Growth inhibition of human SF268 cells assessed as cell growth at 10 uM incubated for 48 hrs by sulforhodamine B assay relative to control
# Format: functional
# Conditions: SF-268, 48 h, read-out: Activity
row,Compound,growth at 10 µM
1,COc1cc2cc(Oc3ccc(NC(=O)Nc4ccc(Cl)c(C(F)(F)F)c4)cc3)c(C)nc2cc1OC,-10.2%

# System: SK-MEL-5
# Test: Growth inhibition of human SK-MEL-5 cells assessed as cell growth at 10 uM incubated for 48 hrs by sulforhodamine B assay relative to control
# Format: functional
# Conditions: SK-MEL-5, 48 h, read-out: Activity
row,Compound,growth at 10 µM
1,COc1cc2cc(Oc3ccc(NC(=O)Nc4ccc(Cl)c(C(F)(F)F)c4)cc3)c(C)nc2cc1OC,-73.4%

# System: LOX IMVI
# Test: Growth inhibition of human LOXIMVI cells assessed as cell growth at 10 uM incubated for 48 hrs by sulforhodamine B assay relative to control
# Format: functional
# Conditions: read-out: Activity
row,Compound,growth at 10 µM
1,COc1cc2cc(Oc3ccc(NC(=O)Nc4ccc(Cl)c(C(F)(F)F)c4)cc3)c(C)nc2cc1OC,-81.3%

# System: COLO 205
# Test: Growth inhibition of human COLO205 cells assessed as cell growth at 10 uM incubated for 48 hrs by sulforhodamine B assay relative to control
# Format: functional
# Conditions: COLO 205, 48 h, read-out: Activity
row,Compound,growth at 10 µM
1,COc1cc2cc(Oc3ccc(NC(=O)Nc4ccc(Cl)c(C(F)(F)F)c4)cc3)c(C)nc2cc1OC,-49.5%

# System: IGROV-1
# Test: Growth inhibition of human IGROV1 cells assessed as cell growth at 10 uM incubated for 48 hrs by sulforhodamine B assay relative to control
# Format: functional
# Conditions: IGROV-1, 48 h, read-out: Activity
row,Compound,growth at 10 µM
1,COc1cc2cc(Oc3ccc(NC(=O)Nc4ccc(Cl)c(C(F)(F)F)c4)cc3)c(C)nc2cc1OC,-7.69%

# System: ACHN
# Test: Growth inhibition of human ACHN cells assessed as cell growth at 10 uM incubated for 48 hrs by sulforhodamine B assay relative to control
# Format: functional
# Conditions: read-out: Activity
row,Compound,growth at 10 µM
1,COc1cc2cc(Oc3ccc(NC(=O)Nc4ccc(Cl)c(C(F)(F)F)c4)cc3)c(C)nc2cc1OC,13.6%

# System: MCF7
# Test: Growth inhibition of human MCF7 cells assessed as cell growth at 10 uM incubated for 48 hrs by sulforhodamine B assay relative to control
# Format: functional
# Conditions: MCF7, 48 h, read-out: Activity
row,Compound,growth at 10 µM
1,COc1cc2cc(Oc3ccc(NC(=O)Nc4ccc(Cl)c(C(F)(F)F)c4)cc3)c(C)nc2cc1OC,2.59%

# System: K562
# Test: Growth inhibition of human K562 cells assessed as cell growth at 10 uM incubated for 48 hrs by sulforhodamine B assay relative to control
# Format: functional
# Conditions: K562, 48 h, read-out: Activity
row,Compound,growth at 10 µM
1,COc1cc2cc(Oc3ccc(NC(=O)Nc4ccc(Cl)c(C(F)(F)F)c4)cc3)c(C)nc2cc1OC,-9.54%

# System: T47D
# Test: Growth inhibition of human T47D cells assessed as cell growth at 10 uM incubated for 48 hrs by sulforhodamine B assay relative to control
# Format: functional
# Conditions: read-out: Activity
row,Compound,growth at 10 µM
1,COc1cc2cc(Oc3ccc(NC(=O)Nc4ccc(Cl)c(C(F)(F)F)c4)cc3)c(C)nc2cc1OC,21.4%

# System: U-251
# Test: Growth inhibition of human U251 cells assessed as cell growth at 10 uM incubated for 48 hrs by sulforhodamine B assay relative to control
# Format: functional
# Conditions: U-251, 48 h, read-out: Activity
row,Compound,growth at 10 µM
1,COc1cc2cc(Oc3ccc(NC(=O)Nc4ccc(Cl)c(C(F)(F)F)c4)cc3)c(C)nc2cc1OC,-80.4%

# System: SF-539
# Test: Growth inhibition of human SF539 cells assessed as cell growth at 10 uM incubated for 48 hrs by sulforhodamine B assay relative to control
# Format: functional
# Conditions: SF-539, 48 h, read-out: Activity
row,Compound,growth at 10 µM
1,COc1cc2cc(Oc3ccc(NC(=O)Nc4ccc(Cl)c(C(F)(F)F)c4)cc3)c(C)nc2cc1OC,-36.2%

# System: A498
# Test: Growth inhibition of human A498 cells assessed as cell growth at 10 uM incubated for 48 hrs by sulforhodamine B assay relative to control
# Format: functional
# Conditions: A498, 48 h, read-out: Activity
row,Compound,growth at 10 µM
1,COc1cc2cc(Oc3ccc(NC(=O)Nc4ccc(Cl)c(C(F)(F)F)c4)cc3)c(C)nc2cc1OC,10.4%

# System: MDA-MB-468
# Test: Growth inhibition of human MDA-MB-468 cells assessed as cell growth at 10 uM incubated for 48 hrs by sulforhodamine B assay relative to control
# Format: functional
# Conditions: MDA-MB-468, 48 h, read-out: Activity
row,Compound,growth at 10 µM
1,COc1cc2cc(Oc3ccc(NC(=O)Nc4ccc(Cl)c(C(F)(F)F)c4)cc3)c(C)nc2cc1OC,-42.7%

# System: CAKI-1
# Test: Growth inhibition of human Caki1 cells assessed as cell growth at 10 uM incubated for 48 hrs by sulforhodamine B assay relative to control
# Format: functional
# Conditions: CAKI-1, 48 h, read-out: Activity
row,Compound,growth at 10 µM
1,COc1cc2cc(Oc3ccc(NC(=O)Nc4ccc(Cl)c(C(F)(F)F)c4)cc3)c(C)nc2cc1OC,-8.92%

# System: NCI-H226
# Test: Growth inhibition of human NCI-H226 cells assessed as cell growth at 10 uM incubated for 48 hrs by sulforhodamine B assay relative to control
# Format: functional
# Conditions: NCI-H226, 48 h, read-out: Activity
row,Compound,growth at 10 µM
1,COc1cc2cc(Oc3ccc(NC(=O)Nc4ccc(Cl)c(C(F)(F)F)c4)cc3)c(C)nc2cc1OC,4.49%

# System: SF-295
# Test: Growth inhibition of human SF295 cells assessed as cell growth at 10 uM incubated for 48 hrs by sulforhodamine B assay relative to control
# Format: functional
# Conditions: SF-295, 48 h, read-out: Activity
row,Compound,growth at 10 µM
1,COc1cc2cc(Oc3ccc(NC(=O)Nc4ccc(Cl)c(C(F)(F)F)c4)cc3)c(C)nc2cc1OC,-70.9%

# System: OVCAR-3
# Test: Growth inhibition of human OVCAR3 cells assessed as cell growth at 10 uM incubated for 48 hrs by sulforhodamine B assay relative to control
# Format: functional
# Conditions: OVCAR-3, 48 h, read-out: Activity
row,Compound,growth at 10 µM
1,COc1cc2cc(Oc3ccc(NC(=O)Nc4ccc(Cl)c(C(F)(F)F)c4)cc3)c(C)nc2cc1OC,-27.3%

# System: 786-0
# Test: Growth inhibition of human 786-0 cells assessed as cell growth at 10 uM incubated for 48 hrs by sulforhodamine B assay relative to control
# Format: functional
# Conditions: 786-0, 48 h, read-out: Activity
row,Compound,growth at 10 µM
1,COc1cc2cc(Oc3ccc(NC(=O)Nc4ccc(Cl)c(C(F)(F)F)c4)cc3)c(C)nc2cc1OC,-21.1%

# System: HOP-92
# Test: Growth inhibition of human HOP92 cells assessed as cell growth at 10 uM incubated for 48 hrs by sulforhodamine B assay relative to control
# Format: functional
# Conditions: HOP-92, 48 h, read-out: Activity
row,Compound,growth at 10 µM
1,COc1cc2cc(Oc3ccc(NC(=O)Nc4ccc(Cl)c(C(F)(F)F)c4)cc3)c(C)nc2cc1OC,-22.3%

# System: NCI-H460
# Test: Growth inhibition of human NCI-H460 cells assessed as cell growth at 10 uM incubated for 48 hrs by sulforhodamine B assay relative to control
# Format: functional
# Conditions: NCI-H460, 48 h, read-out: Activity
row,Compound,growth at 10 µM
1,COc1cc2cc(Oc3ccc(NC(=O)Nc4ccc(Cl)c(C(F)(F)F)c4)cc3)c(C)nc2cc1OC,-19.8%

# System: UACC-62
# Test: Growth inhibition of human UACC62 cells assessed as cell growth at 10 uM incubated for 48 hrs by sulforhodamine B assay relative to control
# Format: functional
# Conditions: UACC-62, 48 h, read-out: Activity
row,Compound,growth at 10 µM
1,COc1cc2cc(Oc3ccc(NC(=O)Nc4ccc(Cl)c(C(F)(F)F)c4)cc3)c(C)nc2cc1OC,-51.5%

# System: UO-31
# Test: Growth inhibition of human UO31 cells assessed as cell growth at 10 uM incubated for 48 hrs by sulforhodamine B assay relative to control
# Format: functional
# Conditions: UO-31, 48 h, read-out: Activity
row,Compound,growth at 10 µM
1,COc1cc2cc(Oc3ccc(NC(=O)Nc4ccc(Cl)c(C(F)(F)F)c4)cc3)c(C)nc2cc1OC,-45.1%

# System: SK-MEL-2
# Test: Growth inhibition of human SK-MEL-2 cells assessed as cell growth at 10 uM incubated for 48 hrs by sulforhodamine B assay relative to control
# Format: functional
# Conditions: SK-MEL-2, 48 h, read-out: Activity
row,Compound,growth at 10 µM
1,COc1cc2cc(Oc3ccc(NC(=O)Nc4ccc(Cl)c(C(F)(F)F)c4)cc3)c(C)nc2cc1OC,-49.8%
